Test results published in patent US7605175B2, “Inhibitors of cyclin-dependent kinases, compositions and uses related thereto” (GPC Biotech AG, priority 2001, dated 2009).

Experiments:
HCT-116 cells = experiment: Calcein AM viability assay, HCT-116; format: cell-based; settings: Homo sapiens, HCT-116, non-protein adjusted, Table 6; read-out: HCT-116 viability IC50
Procedure: The potency of Cdk inhibitors, as measured by loss of cellular viability, was determined with the Calcein AM assay (Molecular Probes). Calcein AM is a substrate of intracellular esterases, which is cleaved only in viable cells to generate a fluorescent product that can be quantified with a fluorescent plate reader. The fluorescent signal is proportional to the number of viable cells, and thus loss of signal in response to the exposure of cells to Cdk inhibitors correlates with a loss of viability. This assay can distinguish cell cycle arrest, in which cells may still by viable, from loss of viability and is thus well suited for the evaluation of Cdk inhibitors. A compound that is a potent cytotoxic, may cause significant loss of cell viability in such assay.
Cellular IC50's were determined in the human colorectal carcinoma cell line, HCT-116, and the normal human fibroblast, IMR90. Protein adjusted IC50's were also determined in HCT-116.
HCT-116 or IMR90 cells were recovered from sub-confluent plates by trypsinization and 1,000 or 4,000 cells, respectively, were plated in 24-well dishes and incubated overnight at 37° C., 5% CO2. HCT-116 cells were cultured in RPMI-1640, 10% FCS, and IMR90 cells were cultured in Minimum Essential Medium-alpha, 10% FCS. After overnight incubation to allow adherence, the media was aspirated from each well and replaced with media containing a test compound at a concentration from 0 to 250 nM, spanning a total of 7 doses. The plates were returned to the incubator and cultured for an additional 72 hours (3 days). […] After 72-hours incubation with the test compound, the cells were washed twice with 1×PBS, taking special care to remove all residual buffer.
A 5 μM Calcein AM solution was prepared by dissolving a […] aliquot of Calcein (Molecular Probes catalog # C3100) in 50 μl DMSO. After the Calcein had completely dissolved (10 minutes at room temperature), it was diluted into 10 ml PBS. Calcein/PBS (0.5 ml) was added to each well. The plates were incubated for 75 minutes at 37° C. (protected from light) and the fluorescent signal was read on a fluorescent plate reader (excitation 485/20 and emission 530/25).

Cdk2/cyclin E = target: T1, Cdk2/cyclin E (Homo sapiens, UniProt P24941); experiment: Biochemical kinase assay Cdk2/cyclin E; settings: Table 6
T1 construct: made in house; host or cells: Sf9 insect cells
From the text: (§1) Enzymes: Cdc2/cyclin B was obtained from commercial sources. Cdk2/his-cyclin Eshort was expressed in Sf9 cells. Cdk2/cyclin A, cdk4/cyclin D1, and cdk6/cyclin D2 were expressed in Sf9 cells. Protein kinase A (catalytic subunit, from bovine heart) and protein kinase C (mixed isozymes from rat brain) were obtained from commercial sources.
(§2) Substrates: Histone H1 was from commercial sources. GST-Rb is glutathione-S-trans-ferase fused to the N-terminal of residues 379-928 of the Rb protein.
(§3) Cdk2/cyclin E, Cdk2/cyclin A, Cdk4/cyclin D1, and Cdk6/cyclin D2 activity was determined using a glutathione-sepharose capture assay. The enzymes were expressed in Sf9 insect cells as heterodimers, and the substrate (GST-Rb) was glutathione-S-transferase fused to residues 379 to 928 of Rb retinoblastoma protein, expressed in E. coli. The assay solution contained 50 mM Tris.HCl, 10 mM MgCl2, 1 mM dithiothreitol, 50 μM adenosine triphosphate, 2 μCi [γ-^33P]adenosine triphosphate, 10% dimethylsulfoxide (from compounds), pH 7.5, 40 μg GST-Rb, and enzyme in a 100 μL volume. Compounds were added at various concentrations between 1 nM and 10 μM. The reaction was allowed to proceed for 15 min at 30° C. and was stopped by the addition of 70 μL of stop solution (237 mM disodium ethylene-diamine tetraacetate, 105 mM adenosine triphosphate, pH 8.0). The GST-Rb was captured by binding to glutathione-sepharose bead (Amersham) for 110 min, and the suspension was filtered through a glass fiber filter. After washing the retained beads five time with phosphate-buffered saline containing 0.3% (w/v) Tween-20, the amount of ^33P incorporated was determined by scintillation counting after adding 100 μL scintillant. Relative activity was determined by dividing the amount of radioactivity incorporated in the presence of compound by the amount of radioactivity incorporated in a control experiment containing DMSO alone but no compound. The background radioactivity, determined in an experiment containing 50 mM disodium ethylenediamine tetraacetate in place of compound, was subtracted from all results before calculations.

Cdk4/cyclin D1 = target: T2, Cdk4/cyclin D1 (Homo sapiens, UniProt P11802); experiment: Biochemical kinase assay Cdk4/cyclin D1; settings: Table 6
T2 construct: made in house; host or cells: Sf9 insect cells
T2 sequence (P11802 whole entry, species assumed): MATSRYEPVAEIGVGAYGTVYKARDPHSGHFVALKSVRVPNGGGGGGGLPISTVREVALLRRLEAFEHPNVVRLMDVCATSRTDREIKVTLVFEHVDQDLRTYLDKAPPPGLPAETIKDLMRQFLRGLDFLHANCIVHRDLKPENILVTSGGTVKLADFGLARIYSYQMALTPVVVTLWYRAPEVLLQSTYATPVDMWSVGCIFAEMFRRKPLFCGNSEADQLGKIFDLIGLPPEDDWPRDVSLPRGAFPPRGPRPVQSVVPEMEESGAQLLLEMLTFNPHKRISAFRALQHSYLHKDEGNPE
T2 sequence (P24385 whole entry partner, species assumed): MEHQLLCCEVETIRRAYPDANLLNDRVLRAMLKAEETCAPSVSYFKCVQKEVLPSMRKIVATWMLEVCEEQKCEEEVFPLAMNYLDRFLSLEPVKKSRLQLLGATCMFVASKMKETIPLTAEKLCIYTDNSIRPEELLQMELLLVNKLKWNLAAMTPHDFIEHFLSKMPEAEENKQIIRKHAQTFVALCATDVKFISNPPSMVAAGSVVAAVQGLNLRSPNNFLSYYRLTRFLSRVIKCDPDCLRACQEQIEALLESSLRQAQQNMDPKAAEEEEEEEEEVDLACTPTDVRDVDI
From the text: as §1, §2, §3

Cdc2/cyclin B = target: T3, Cdc2/cyclin B (Homo sapiens, UniProt P06493); experiment: Biochemical kinase assay Cdc2/cyclin B; settings: Table 6
T3 construct: purchased
T3 sequence (P06493 whole entry, species assumed): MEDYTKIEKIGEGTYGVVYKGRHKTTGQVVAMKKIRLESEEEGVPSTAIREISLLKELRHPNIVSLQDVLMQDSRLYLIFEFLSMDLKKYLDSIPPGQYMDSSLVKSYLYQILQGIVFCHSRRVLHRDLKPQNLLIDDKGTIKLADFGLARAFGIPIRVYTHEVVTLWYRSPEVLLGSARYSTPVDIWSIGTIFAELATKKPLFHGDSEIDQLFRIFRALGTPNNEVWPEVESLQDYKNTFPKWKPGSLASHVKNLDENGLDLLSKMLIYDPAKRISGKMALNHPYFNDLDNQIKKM
T3 sequence (P14635 whole entry partner, species assumed): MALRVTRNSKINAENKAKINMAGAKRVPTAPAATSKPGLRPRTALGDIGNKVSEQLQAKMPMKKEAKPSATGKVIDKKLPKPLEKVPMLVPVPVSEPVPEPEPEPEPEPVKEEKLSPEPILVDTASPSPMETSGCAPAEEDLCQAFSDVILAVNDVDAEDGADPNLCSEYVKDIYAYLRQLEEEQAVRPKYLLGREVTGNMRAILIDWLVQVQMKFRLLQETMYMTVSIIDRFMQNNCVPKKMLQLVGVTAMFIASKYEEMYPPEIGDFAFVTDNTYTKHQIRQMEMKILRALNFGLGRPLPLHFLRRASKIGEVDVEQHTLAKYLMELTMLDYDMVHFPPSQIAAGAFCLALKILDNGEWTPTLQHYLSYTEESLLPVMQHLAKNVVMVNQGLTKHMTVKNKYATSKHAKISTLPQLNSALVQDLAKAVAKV
From the text: as §1, §2
Assays: Cdc2/cyclinB activity was determined by measuring incorporation of radio-activity from adenosine [γ-^32P]triphosphate into Histone H1 using a TCA precipitation assay. Cdc2/cyclin B kinase and Histone H1 were obtained from commercial sources. The final assay solution contained 50 mM Tris.HCl, 10 mM MgCl2, 1 mM dithiothreitol, 50 μM adenosine triphosphate, 2 μCi ^32P, 10% dimethylsulfoxide (from compounds), pH 7.5, 20 μg Histone H1, 6 U enzyme in a 50 μL volume. Compounds were added at various concentrations between 1 nM and 10 μM. The reaction was started with the addition of enzyme, allowed to proceed for 20 min at 30° C., and stopped by the addition of 20 μL of stop solution (237 mM disodium ethylenediamine tetraacetate, 105 mM adenosine triphosphate, pH 8.0). The protein was precipitated by the addition of 35 μL 70% (w/v) trichloroacetic acid, and the precipitate was captured on a 96-well glass fiber filter plate (Millipore, Inc.), which had been wet with 25% (w/v) trichloroacetic acid. The filter was washed ten times with 25% (w/v) trichloroacetic acid, and the amount of incorporated ^32P was determined by scintillation counting after adding 100 μL scintillant (Microscint 20, Packard Instruments). Relative activity was determined by dividing the amount of radioactivity incorporated in the presence of compound by the amount of radioactivity incorporated in a control experiment containing DMSO alone but no compound. The background radioactivity, determined in an experiment containing 50 mM EDTA in place of compound, was subtracted from all results before calculations.

Row | Structure (SMILES) | IC50 (HCT-116 cells) [nM] | IC50 (Cdk2/cyclin E) [nM] | IC50 (Cdk4/cyclin D1) [nM] | IC50 (Cdc2/cyclin B) [nM]
1 | CC(C)c1nn(-c2c(Cl)cc(Cl)cc2Cl)c2nc(Cc3ccc(OCCN4CCN(C(C)C)CC4)cc3)[nH]c(=O)c12 [Compound A1] | < 100 | < 10 | < 1000 | < 100
2 | CC(C)c1nn(-c2c(Cl)cccc2Cl)c2nc(Cc3ccc(OCCN4CCOCC4)cc3)[nH]c(=O)c12 [Compound A2] | < 100 | < 10 | < 10000 | < 1000
3 | CC(C)c1nn(-c2c(Cl)cccc2Cl)c2nc(Cc3ccc(O)cc3)[nH]c(=O)c12 [Compound A4] | < 100 | < 10 | < 100 | < 100
4 | CC(C)c1nn(-c2c(Cl)cccc2Cl)c2nc(Cc3ccc(O)c(CN4CCOCC4)c3)[nH]c(=O)c12 [Compound A5] | < 100 | < 100 | < 10000 | < 1000
5 | O=C(Nc1cccc2c1C(=O)c1c(-c3ccc(OCCN4CCOCC4)cc3Cl)n[nH]c1-2)NN1CCOCC1 [Compound A28] | – | < 100 | < 1000 | < 100
6 | Cc1cc(OCCN2CCCC2)ccc1-c1[nH]nc2c1C(=O)c1c(NC(=O)NN3CCOCC3)cccc1-2 [Compound A29] | – | < 10 | < 100 | < 100
7 | CC(C)c1nn(-c2c(Cl)cccc2Cl)c2nc(Cc3ccc(NS(=O)(=O)CCCN4CCOCC4)cc3)[nH]c(=O)c12 [Compound A30] | < 100 | < 100 | < 1000 | < 1000
8 | COc1cc(-c2[nH]nc3c2C(=O)c2c(NC(=O)NN4CCOCC4)cccc2-3)ccc1OCCN1CCCC1 [Compound A31] | – | < 100 | < 100 | < 100
9 | CC(C)C(N)C(=O)OCCN1CCN(NC(=O)Nc2cccc3c2C(=O)c2c-3n[nH]c2-c2ccc(OCCN3CCCC3)cc2)CC1 (centres unmarked) [Compound A33] | – | < 100 | < 100 | < 100
10 | CN(C)C(=O)COc1ccc(-c2[nH]nc3c2C(=O)c2c(NC(=O)NN4CCOCC4)cccc2-3)cc1 [Compound A34] | – | < 10 | < 100 | < 100
11 | Cc1noc(COc2ccc(-c3[nH]nc4c3C(=O)c3c(NC(=O)NN5CCOCC5)cccc3-4)cc2)n1 [Compound A35] | – | < 100 | < 100 | < 10
12 | O=C(Nc1cccc2c1C(=O)c1c-2n[nH]c1-c1ccc(OCC(=O)N2CCOCC2)cc1)NN1CCOCC1 [Compound A36] | – | < 100 | < 100 | < 100
13 | CC(C)c1nn(-c2c(Cl)cc(Cl)cc2Cl)c2nc(Cc3ccc(NS(=O)(=O)CCCN4CCCC4)cc3)[nH]c(=O)c12 [Compound A38] | – | < 100 | < 1000 | < 1000
14 | CC(C)c1nn(-c2c(Cl)cc(Cl)cc2Cl)c2nc(Cc3ccc(NS(=O)(=O)CCCN4CCN(C(C)C)CC4)cc3)[nH]c(=O)c12 [Compound A39] | – | < 100 | < 1000 | < 1000
